Data reported in patent publication US20050175719A1, “Procyanidins for treatment and prevention of enzymatic irritation to the skin” (priority 2004, published 2005).

Test system: trypsin
Assay: Inhibition of trypsin-induced cleavage of fluorescent BODIPY FL casein (EnzChek protease assay kit)
Assay type: biochemical
Description: The procedure of Example 1 was independently repeated using the procyanidin-containing grape seed extract and STI, respectively, at 0.1% concentration. In addition, the procedure of Example 1 was repeated on the five individual monomer units typically found in OPC, at up to three different concentration levels.

[1] = Table 4, concentration (w/w) 0.1 %
[2] = Table 4, concentration (w/w) 1 %
[3] = Table 4, concentration (w/w) 2.5 %

Row | Molecule | trypsin inhibition activity (in words) (at concentrations up to 0.1%) | % trypsin inhibition (concentration 0.001 % (w/w)) | % trypsin inhibition (concentration 0.01 % (w/w)) | % trypsin inhibition (concentration 0.05 % (w/w)) | % trypsin inhibition [1] | % trypsin inhibition [2] | % trypsin inhibition [3]
1 | O=C1O[C@H]([C@@H](O)CO)C(O)=C1O [Vit C, Vitamin C] | no trypsin inhibition activity | −2% | 1% | −12% |  |  | 
2 | Oc1cc(O)c2c(c1)OC(c1ccc(O)c(O)c1)C(O)C2 (racemic) [Catechin (+/−)] |  |  |  |  | 4.6% | 61% | 76%
3 | Oc1cc(O)c2c(c1)O[C@@H](c1ccc(O)c(O)c1)[C@@H](O)C2 [Epicatechin (+)] |  |  |  |  | 22% |  | 
4 | Oc1cc(O)c2c(c1)O[C@H](c1ccc(O)c(O)c1)[C@H](O)C2 [Epicatechin (−)] |  |  |  |  |  | 71% | 90%
5 | Oc1cc(O)c2c(c1)OC(c1ccc(O)c(O)c1)C(O)C2 (stereo not drawn) [Catechin (+)] |  |  |  |  | 11% | 72% | 89%
6 | Catechin (−) |  |  |  |  | 18% | 70% | 92%
